# Experimental data reported in US20080009418A1, “Selective Inhibitors” (Alchemia LTD., priority 2004, published 2008).
# Legend:
# [1] = biological target: T1, Human δ-opioid (DOP) (Homo sapiens, UniProt P41143); assay: Radioligand binding, human δ-opioid (DOP) membranes, FlashPlate, [3H]-Bremazocine; conditions: compound at 10 μM, [3H]-Bremazocine
# T1 construct: purchased Perkin Elmer Biosignal
# How it was run: (§1)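 Cloned human receptor membranes were coated onto FlashPlate wells and incubated with radioligand and compound (added from a 0.5 mM DMSO daughter plate) for 1 hour at room temperature in the dark. Scintillation counting gave percent inhibition, with DMSO defining total and reference ligand defining non-specific binding.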
# [2] = biological target: T2, Human neurokinin (NK1) (Homo sapiens, UniProt P25103); assay: Radioligand binding, human neurokinin NK1 membranes, filtration, [125I]-Substance P; conditions: compound at 10 μM, [125I]-Substance P
# T2 construct: purchased Perkin Elmer Biosignal
# T2 sequence (P25103 whole entry): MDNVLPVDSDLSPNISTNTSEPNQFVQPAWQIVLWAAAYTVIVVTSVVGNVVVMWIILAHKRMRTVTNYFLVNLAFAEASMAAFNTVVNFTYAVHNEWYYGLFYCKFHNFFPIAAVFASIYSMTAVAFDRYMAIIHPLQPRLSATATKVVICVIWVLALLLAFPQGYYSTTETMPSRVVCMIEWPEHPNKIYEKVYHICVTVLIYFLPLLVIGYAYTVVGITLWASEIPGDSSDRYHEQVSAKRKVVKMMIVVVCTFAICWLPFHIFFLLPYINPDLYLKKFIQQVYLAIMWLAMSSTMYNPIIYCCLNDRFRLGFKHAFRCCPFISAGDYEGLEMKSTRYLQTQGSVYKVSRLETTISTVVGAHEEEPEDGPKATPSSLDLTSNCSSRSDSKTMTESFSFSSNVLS
# How it was run: (§2)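 Percent inhibition of radioligand binding measured on recombinant human membranes: NK1 with [125I]-Substance P, KOP with [3H]-Diprenorphine. Incubation 1 h at room temperature, then harvest onto 0.3% PEI-soaked filters, cold Tris-HCl pH 7.4 washes and scintillation counting; non-specific binding from reference ligand wells.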
# [3] = biological target: T3, Human opioid (ORL1) (Homo sapiens, UniProt P41146); assay: Radioligand binding, human opioid ORL1 membranes, FlashPlate, [125I]-Nociceptin; conditions: compound at 10 μM, [125I]-Nociceptin
# T3 construct: purchased Perkin Elmer Biosignal
# T3 sequence (P41146 whole entry): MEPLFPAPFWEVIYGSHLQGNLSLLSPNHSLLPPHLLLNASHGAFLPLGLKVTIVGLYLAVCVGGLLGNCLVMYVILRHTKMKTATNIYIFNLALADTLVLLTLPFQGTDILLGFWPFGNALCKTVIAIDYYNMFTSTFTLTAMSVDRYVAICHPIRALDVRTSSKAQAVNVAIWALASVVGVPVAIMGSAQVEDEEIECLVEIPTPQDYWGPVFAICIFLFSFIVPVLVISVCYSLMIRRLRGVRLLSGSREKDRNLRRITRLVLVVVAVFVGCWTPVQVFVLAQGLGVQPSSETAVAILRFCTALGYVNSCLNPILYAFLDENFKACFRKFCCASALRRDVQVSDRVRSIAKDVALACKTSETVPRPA
# How it was run: as §1
# [4] = biological target: T4, Human μ-opioid (MOP) (Homo sapiens, UniProt P35372); assay: Radioligand binding, human μ-opioid (MOP) membranes, FlashPlate, [3H]-Naloxone; conditions: compound at 10 μM, [3H]-Naloxone
# T4 construct: purchased Perkin Elmer Biosignal
# T4 sequence (P35372 whole entry): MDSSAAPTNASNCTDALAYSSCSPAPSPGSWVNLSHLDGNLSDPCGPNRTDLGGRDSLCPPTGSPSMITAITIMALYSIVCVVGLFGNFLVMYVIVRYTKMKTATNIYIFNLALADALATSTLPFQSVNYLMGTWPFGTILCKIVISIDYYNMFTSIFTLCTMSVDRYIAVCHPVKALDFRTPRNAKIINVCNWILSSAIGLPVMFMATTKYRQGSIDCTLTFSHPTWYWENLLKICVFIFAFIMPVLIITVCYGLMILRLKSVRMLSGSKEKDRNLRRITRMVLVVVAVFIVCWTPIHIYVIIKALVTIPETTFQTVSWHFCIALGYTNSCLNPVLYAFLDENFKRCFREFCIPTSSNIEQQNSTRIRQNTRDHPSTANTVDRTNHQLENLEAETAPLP
# How it was run: as §1
# [5] = biological target: T5, Human Melanocortin (MC3) (Homo sapiens, UniProt P41968); assay: Radioligand binding, human melanocortin MC3 membranes, FlashPlate, [125I]-NDP-αMSH; conditions: compound at 10 μM, [125I]-NDP-αMSH
# T5 construct: purchased Perkin Elmer Biosignal
# T5 sequence (P41968 whole entry): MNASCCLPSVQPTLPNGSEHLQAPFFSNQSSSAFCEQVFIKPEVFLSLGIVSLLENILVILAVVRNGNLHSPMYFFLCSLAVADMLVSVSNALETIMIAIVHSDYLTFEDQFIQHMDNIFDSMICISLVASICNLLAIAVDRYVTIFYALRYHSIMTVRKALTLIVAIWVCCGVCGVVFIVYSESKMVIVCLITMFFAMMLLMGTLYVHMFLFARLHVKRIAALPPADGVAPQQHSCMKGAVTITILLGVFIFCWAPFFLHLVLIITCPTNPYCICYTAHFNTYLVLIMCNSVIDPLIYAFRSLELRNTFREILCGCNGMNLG
# How it was run: as §1
# [6] = biological target: T6, Human κ-Opioid (KOP) (Homo sapiens, UniProt P41145); assay: Radioligand binding, human κ-opioid (KOP) membranes, filtration, [3H]-Diprenorphine; conditions: compound at 10 μM, [3H]-Diprenorphine
# T6 construct: purchased Perkin Elmer Biosignal
# T6 sequence (P41145 whole entry): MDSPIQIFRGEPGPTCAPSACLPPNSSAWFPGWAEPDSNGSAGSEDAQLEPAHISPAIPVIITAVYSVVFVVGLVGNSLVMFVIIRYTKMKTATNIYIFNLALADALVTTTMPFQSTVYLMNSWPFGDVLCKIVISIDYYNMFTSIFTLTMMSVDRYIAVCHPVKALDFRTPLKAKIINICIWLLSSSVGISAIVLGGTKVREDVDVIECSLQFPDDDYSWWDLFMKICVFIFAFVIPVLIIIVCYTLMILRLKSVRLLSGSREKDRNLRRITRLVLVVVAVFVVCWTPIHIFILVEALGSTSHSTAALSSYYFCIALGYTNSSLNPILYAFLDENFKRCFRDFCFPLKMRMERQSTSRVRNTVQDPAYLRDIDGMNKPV
# How it was run: as §2
# [7] = biological target: T7, Mouse urotensin (mUR2) (Mus musculus, UniProt Q8VIH9); assay: Radioligand binding, mouse urotensin mUR2 membranes, FlashPlate, [125I]-Urotensin II; conditions: compound at 10 μM, [125I]-Urotensin II
# T7 construct: purchased Perkin Elmer Biosignal
# T7 sequence (Q8VIH9 1-385): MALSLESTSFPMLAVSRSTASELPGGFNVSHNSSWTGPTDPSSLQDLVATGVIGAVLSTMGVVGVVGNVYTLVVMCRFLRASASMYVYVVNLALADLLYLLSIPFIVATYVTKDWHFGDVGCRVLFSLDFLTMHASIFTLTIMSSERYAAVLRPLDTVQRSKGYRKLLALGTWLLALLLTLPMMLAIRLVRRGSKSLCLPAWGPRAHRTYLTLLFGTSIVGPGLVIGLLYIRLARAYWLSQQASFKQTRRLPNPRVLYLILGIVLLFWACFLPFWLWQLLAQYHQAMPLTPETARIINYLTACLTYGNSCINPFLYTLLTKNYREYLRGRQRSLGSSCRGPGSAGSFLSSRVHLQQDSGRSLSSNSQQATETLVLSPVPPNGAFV
# How it was run: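 Cloned mouse urotensin (mUR2) receptor membranes from Perkin Elmer Biosignal were immobilized in FlashPlate microplates using a proprietary coating. Each well got 19.5 μl buffer, then 0.5 μl of DMSO, reference ligand, or compound. Adding 5 μl of [125I]-Urotensin II, diluted to 5× final concentration in binding buffer, started binding. Plates were sealed with TopSeal-A and incubated 1 hour at room temperature in the dark. Wells were counted for 30 seconds each on a TopCount after a 60-second delay, and percentage inhibition was calculated.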
# [8] = biological target: T8, Human melanin-concentrating hormone (MCH1) (Homo sapiens, UniProt Q99705); assay: Radioligand binding, human melanin-concentrating hormone MCH1 membranes, FlashPlate, [125I]-S36057; conditions: compound at 10 μM
# T8 construct: purchased Perkin Elmer Biosignal
# T8 sequence (Q99705 whole entry): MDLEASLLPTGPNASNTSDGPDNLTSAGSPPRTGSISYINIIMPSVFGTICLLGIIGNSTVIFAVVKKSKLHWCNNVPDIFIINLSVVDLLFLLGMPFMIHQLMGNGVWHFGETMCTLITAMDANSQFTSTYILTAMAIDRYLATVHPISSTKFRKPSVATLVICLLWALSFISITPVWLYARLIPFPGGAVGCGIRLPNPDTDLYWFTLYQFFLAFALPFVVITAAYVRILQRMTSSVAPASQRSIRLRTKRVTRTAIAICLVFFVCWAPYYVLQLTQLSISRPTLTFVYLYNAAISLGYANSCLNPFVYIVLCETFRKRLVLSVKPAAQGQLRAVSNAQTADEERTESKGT
# How it was run: as §1
# [9] = biological target: T9, Human Melanocortin (MC4) (Homo sapiens, UniProt P32245); assay: Radioligand binding, human melanocortin MC4 membranes, FlashPlate, [125I]-NDP-αMSH; conditions: compound at 10 μM, [125I]-NDP-αMSH
# T9 construct: purchased Perkin Elmer Biosignal
# T9 sequence (P32245 whole entry): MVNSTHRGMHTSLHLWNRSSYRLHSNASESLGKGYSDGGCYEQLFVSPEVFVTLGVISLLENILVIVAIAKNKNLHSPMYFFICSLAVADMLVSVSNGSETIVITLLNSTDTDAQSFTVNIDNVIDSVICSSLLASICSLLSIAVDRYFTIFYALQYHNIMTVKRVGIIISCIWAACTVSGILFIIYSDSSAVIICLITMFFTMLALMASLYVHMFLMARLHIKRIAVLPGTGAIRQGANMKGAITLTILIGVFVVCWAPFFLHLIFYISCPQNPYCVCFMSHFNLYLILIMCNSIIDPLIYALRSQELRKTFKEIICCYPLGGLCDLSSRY
# How it was run: as §1
# [10] = biological target: T10, Human melanocortin (MC5) (Homo sapiens, UniProt P33032); assay: Radioligand binding, human melanocortin MC5 membranes, FlashPlate, [125I]-NDP-αMSH; conditions: compound at 10 μM, [125I]-NDP-αMSH
# T10 construct: purchased Perkin Elmer Biosignal
# T10 sequence (P33032 whole entry): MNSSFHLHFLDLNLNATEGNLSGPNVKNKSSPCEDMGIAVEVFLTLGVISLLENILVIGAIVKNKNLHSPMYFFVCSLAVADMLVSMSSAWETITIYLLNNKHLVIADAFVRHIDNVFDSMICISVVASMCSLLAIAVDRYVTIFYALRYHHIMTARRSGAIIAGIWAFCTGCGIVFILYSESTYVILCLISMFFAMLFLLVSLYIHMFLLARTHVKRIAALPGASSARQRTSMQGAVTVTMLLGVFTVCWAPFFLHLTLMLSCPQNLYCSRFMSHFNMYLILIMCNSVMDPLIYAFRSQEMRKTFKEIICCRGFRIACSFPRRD
# How it was run: as §1
# [11] = biological target: T11, Human neuropeptide Y (NPY-Y1) (Homo sapiens, UniProt P25929); assay: Radioligand binding, human neuropeptide Y NPY-Y1 membranes, FlashPlate, [125I]-PYY; conditions: compound at 10 μM, [125I]-PYY
# T11 construct: purchased Perkin Elmer Biosignal
# T11 sequence (P25929 1-384): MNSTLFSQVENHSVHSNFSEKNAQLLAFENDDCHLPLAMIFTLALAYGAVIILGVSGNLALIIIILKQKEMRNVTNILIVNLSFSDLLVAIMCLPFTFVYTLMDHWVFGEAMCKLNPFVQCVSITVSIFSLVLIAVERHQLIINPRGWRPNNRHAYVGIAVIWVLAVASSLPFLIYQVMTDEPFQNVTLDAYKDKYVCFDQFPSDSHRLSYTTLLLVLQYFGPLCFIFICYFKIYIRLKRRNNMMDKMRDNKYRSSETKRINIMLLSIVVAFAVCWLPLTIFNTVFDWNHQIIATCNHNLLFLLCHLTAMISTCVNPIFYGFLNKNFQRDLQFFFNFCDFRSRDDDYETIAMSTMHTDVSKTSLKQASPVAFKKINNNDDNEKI
# How it was run: as §1
# T1 sequence (P41143 whole entry): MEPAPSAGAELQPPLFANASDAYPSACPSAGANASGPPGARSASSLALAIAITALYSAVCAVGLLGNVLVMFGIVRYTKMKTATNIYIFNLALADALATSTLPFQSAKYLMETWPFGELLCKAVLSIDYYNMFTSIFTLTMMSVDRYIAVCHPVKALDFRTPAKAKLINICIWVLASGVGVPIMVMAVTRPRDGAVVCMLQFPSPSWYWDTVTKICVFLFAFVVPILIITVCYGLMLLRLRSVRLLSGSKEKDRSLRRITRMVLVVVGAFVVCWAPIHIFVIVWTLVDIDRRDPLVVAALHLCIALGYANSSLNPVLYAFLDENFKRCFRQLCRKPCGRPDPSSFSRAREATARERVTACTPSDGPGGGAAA
smiles,measurement,setting,value
CO[C@H]1[C@H](O)[C@@H](COCc2ccc3ccccc3c2)OC(OCc2cccc(O)c2)[C@@H]1NC(=O)CCCN (stereo partly shown) [compound 167],"A1 radioligand binding, percentage inhibition",[1],− (“−” indicates less than 50% inhibition at 10 μM)
same,"A8 radioligand binding, percentage inhibition",[2],+ (“+” indicates greater than 50% inhibition at 10 μM)
same,"A10 radioligand binding, percentage inhibition",[3],− (“−” indicates less than 50% inhibition at 10 μM)
same,"A7 radioligand binding, percentage inhibition",[4],− (“−” indicates less than 50% inhibition at 10 μM)
same,"A3 radioligand binding, percentage inhibition",[5],− (“−” indicates less than 50% inhibition at 10 μM)
same,"A2 radioligand binding, percentage inhibition",[6],− (“−” indicates less than 50% inhibition at 10 μM)
same,"A11 radioligand binding, percentage inhibition",[7],− (“−” indicates less than 50% inhibition at 10 μM)
same,"A6 radioligand binding, percentage inhibition",[8]; [125I]-S36057,− (“−” indicates less than 50% inhibition at 10 μM)
same,"A4 radioligand binding, percentage inhibition",[9],− (“−” indicates less than 50% inhibition at 10 μM)
same,"A5 radioligand binding, percentage inhibition",[10],− (“−” indicates less than 50% inhibition at 10 μM)
same,"A9 radioligand binding, percentage inhibition",[11],− (“−” indicates less than 50% inhibition at 10 μM)
"NCCCC(=O)NC1C(OCc2ccc(Cl)cc2)OC(COCc2ccc3ccccc3c2)C(O)C1OCc1ccc2ccccc2c1 (single isomer, unassigned) [compound 496]","A1: inhibition of radioligand binding, human δ-opioid (DOP)",[1],− (“−” indicates less than 50% inhibition at 10 μM)
same,"A8: inhibition of radioligand binding, human neurokinin (NK1)",[2],+ (“+” indicates greater than 50% inhibition at 10 μM)
same,"A10: inhibition of radioligand binding, human opioid (ORL1)",[3],+ (“+” indicates greater than 50% inhibition at 10 μM)
same,"A7: inhibition of radioligand binding, human μ-opioid (MOP)",[4],+ (“+” indicates greater than 50% inhibition at 10 μM)
same,"A3: inhibition of radioligand binding, human melanocortin (MC3)",[5],+ (“+” indicates greater than 50% inhibition at 10 μM)
same,"A2: inhibition of radioligand binding, human κ-opioid (KOP)",[6],− (“−” indicates less than 50% inhibition at 10 μM)
same,"A11: inhibition of radioligand binding, mouse urotensin (mUR2)",[7],− (“−” indicates less than 50% inhibition at 10 μM)
same,"A6: inhibition of radioligand binding, human melanin-concentrating hormone (MCH1)",[8]; [125I]-S36057,+ (“+” indicates greater than 50% inhibition at 10 μM)
same,"A4: inhibition of radioligand binding, human melanocortin (MC4)",[9],+ (“+” indicates greater than 50% inhibition at 10 μM)
same,"A5: inhibition of radioligand binding, human melanocortin (MC5)",[10],+ (“+” indicates greater than 50% inhibition at 10 μM)
same,"A9: inhibition of radioligand binding, human neuropeptide Y (NPY-Y1)",[11],− (“−” indicates less than 50% inhibition at 10 μM)
NCCCC(=O)NC1C(OCc2ccccc2)OC(COCc2ccc(Cl)cc2)C(O)C1OCc1ccccc1 (stereo not shown) [compound 380],A1: inhibition of radioligand binding,[1]; human DOP membranes,− (“−” indicates less than 50% inhibition at 10 μM)
same,A8: inhibition of radioligand binding,[2]; human NK1 membranes,+ (“+” indicates greater than 50% inhibition at 10 μM)
same,A10: inhibition of radioligand binding,[3]; human ORL1 membranes,− (“−” indicates less than 50% inhibition at 10 μM)
same,A7: inhibition of radioligand binding,[4]; human MOP membranes,− (“−” indicates less than 50% inhibition at 10 μM)
same,A3: inhibition of radioligand binding,[5]; human MC3 membranes,− (“−” indicates less than 50% inhibition at 10 μM)
same,A2: inhibition of radioligand binding,[6]; human KOP membranes,− (“−” indicates less than 50% inhibition at 10 μM)
same,A11: inhibition of radioligand binding,[7]; mouse mUR2 membranes,− (“−” indicates less than 50% inhibition at 10 μM)
same,A6: inhibition of radioligand binding,"[8]; [125I]-S36057, human MCH1 membranes",− (“−” indicates less than 50% inhibition at 10 μM)
same,A4: inhibition of radioligand binding,[9]; human MC4 membranes,+ (“+” indicates greater than 50% inhibition at 10 μM)
same,A5: inhibition of radioligand binding,[10]; human MC5 membranes,− (“−” indicates less than 50% inhibition at 10 μM)
same,A9: inhibition of radioligand binding,[11]; human NPY-Y1 membranes,− (“−” indicates less than 50% inhibition at 10 μM)
CSC1OC(COCc2ccc(-c3ccccc3)cc2)C(O)C(OCc2ccc3ccccc3c2)C1NC(=O)CCN (stereo not shown) [compound 313],"A1: inhibition of radioligand binding, human δ-opioid (DOP)",[1],− (“−” indicates less than 50% inhibition at 10 μM)
same,"A8: inhibition of radioligand binding, human neurokinin (NK1)",[2],+ (“+” indicates greater than 50% inhibition at 10 μM)
same,"A10: inhibition of radioligand binding, human opioid (ORL1)",[3],− (“−” indicates less than 50% inhibition at 10 μM)
same,"A7: inhibition of radioligand binding, human μ-opioid (MOP)",[4],− (“−” indicates less than 50% inhibition at 10 μM)
same,"A3: inhibition of radioligand binding, human melanocortin (MC3)",[5],− (“−” indicates less than 50% inhibition at 10 μM)
same,"A2: inhibition of radioligand binding, human κ-opioid (KOP)",[6],− (“−” indicates less than 50% inhibition at 10 μM)
same,"A11: inhibition of radioligand binding, mouse urotensin (mUR2)",[7],− (“−” indicates less than 50% inhibition at 10 μM)
same,"A6: inhibition of radioligand binding, human melanin-concentrating hormone (MCH1)",[8]; [125I]-S36057,− (“−” indicates less than 50% inhibition at 10 μM)
same,"A4: inhibition of radioligand binding, human melanocortin (MC4)",[9],− (“−” indicates less than 50% inhibition at 10 μM)
same,"A5: inhibition of radioligand binding, human melanocortin (MC5)",[10],+ (“+” indicates greater than 50% inhibition at 10 μM)
same,"A9: inhibition of radioligand binding, human neuropeptide Y (NPY-Y1)",[11],− (“−” indicates less than 50% inhibition at 10 μM)
COCC1OC(OCc2ccc(Cl)cc2)C(NC(=O)CCCN)C(OCc2ccc3ccccc3c2)C1O (stereo not shown) [compound 212],A1: inhibition of radioligand binding,[1]; FlashPlate,− (“−” indicates less than 50% inhibition at 10 μM)
same,A8: inhibition of radioligand binding,[2]; filtration,+ (“+” indicates greater than 50% inhibition at 10 μM)
same,A10: inhibition of radioligand binding,[3]; FlashPlate,− (“−” indicates less than 50% inhibition at 10 μM)
same,A7: inhibition of radioligand binding,[4]; FlashPlate,− (“−” indicates less than 50% inhibition at 10 μM)
same,A3: inhibition of radioligand binding,[5]; FlashPlate,− (“−” indicates less than 50% inhibition at 10 μM)
same,A2: inhibition of radioligand binding,[6]; filtration,− (“−” indicates less than 50% inhibition at 10 μM)
same,A11: inhibition of radioligand binding,[7]; FlashPlate,− (“−” indicates less than 50% inhibition at 10 μM)
same,A6: inhibition of radioligand binding,"[8]; [125I]-S36057, FlashPlate",− (“−” indicates less than 50% inhibition at 10 μM)
same,A4: inhibition of radioligand binding,[9]; FlashPlate,− (“−” indicates less than 50% inhibition at 10 μM)
same,A5: inhibition of radioligand binding,[10]; FlashPlate,+ (“+” indicates greater than 50% inhibition at 10 μM)
same,A9: inhibition of radioligand binding,[11]; FlashPlate,− (“−” indicates less than 50% inhibition at 10 μM)
